Results on seven molecules are retold here after patent US20230398130A1, “METHODS AND COMPOSITIONS FOR DIFFERENTIATING STEM CELLS” (Massachusetts Institute of Technology, priority 2020, published 2023).

Test [1] deals with ISC-enriched organoids. Kind of test: Primary screen, 384-well 2.5-D organoid differentiation (ENR+CD, 6 days): basal lysozyme secretion (LYZ.NS). Format: cell-based, murine. Particulars: for Dose.FC.LYZ.NS / SSMD.LYZ.NS: primary screen; for Dose.FC.LYZ.NS: FC vs plate median; for Z.LYZ.NS: standard z score of FC; for SSMD.LYZ.NS: strictly standardized mean difference. An excerpt:
(§1) High-throughput screening.

For test [2], the system named is ISC-enriched organoids. In words: Primary screen, 384-well 2.5-D organoid differentiation (ENR+CD, 6 days): carbachol-induced lysozyme secretion (LYZ.S). Format: cell-based, murine. Particulars: primary screen; for Dose.FC.LYZ.S: FC vs plate median; for Z.LYZ.S: standard z score; for SSMD.LYZ.S: strictly standardized mean difference.
Source text: as §1

Test [3] concerns ISC-enriched organoids. In words: Primary screen, 384-well 2.5-D organoid differentiation (ENR+CD, 6 days, Target Selective Inhibitor Library, vs whole-plate median): ATP (CellTiter-Glo 3D, CTG). Particulars: for Dose.FC.CTG / SSMD.CTG: primary screen; for Dose.FC.CTG: FC vs plate median; for Z.CTG: standard z score of FC; for SSMD.CTG: strictly standardized mean difference.
[4] abbreviates: 1st of the 4 dose lines of the treatment (dose not given).
The mark [5] stands for this setting: 2nd of the 4 dose lines of the treatment (dose not given).
[6] abbreviates: 3rd of the 4 dose lines of the treatment (dose not given).
The mark [7] stands for this setting: 4th of the 4 dose lines of the treatment (dose not given).

`O=C(NCCN1CCOCC1)c1ccc(Cl)cc1` [Moclobemide (Ro 111163)]: the Dose.FC.LYZ.NS in test [1] (Dose 0.08 uM) is 0.075 log 2 fold change; in test [1] (Dose 0.40 uM) it was 0.121 log 2 fold change; in test [1] (Dose 2.00 uM) it was 0.001 log 2 fold change; in test [1] (Dose 10.00 uM), −0.028 log 2 fold change. The Z.LYZ.NS in test [1] (Dose 0.08 uM) was 0.654; in test [1] (Dose 0.40 uM), 1.055; in test [1] (Dose 2.00 uM), 0.011; in test [1] (Dose 10.00 uM), −0.243. In addition, the SSMD.LYZ.NS in test [1] (setting [4]) is 0.302; in test [1] (setting [5]) it was 0.415; in test [1] (setting [6]) it was 0.007; in test [1] (setting [7]), −0.219. The Dose.FC.LYZ.S in test [2] (Dose 0.08 uM) is given as 0.147 log 2 fold change; in test [2] (Dose 0.40 uM), 0.094 log 2 fold change; in test [2] (Dose 2.00 uM) it was 0.012 log 2 fold change; in test [2] (Dose 10.00 uM) it was 0.019 log 2 fold change. Moreover, the Z.LYZ.S is 0.953 in test [2] (setting [4]), 0.607 in test [2] (setting [5]), 0.078 in test [2] (setting [6]) and 0.123 in test [2] (setting [7]). Further, the SSMD.LYZ.S stood at 0.495 in test [2] (setting [4]), 0.348 in test [2] (setting [5]), 0.056 in test [2] (setting [6]) and 0.135 in test [2] (setting [7]). The Dose.FC.CTG in test [3] (Dose 0.08 uM) is listed as 0.146 log 2 fold change; in test [3] (Dose 0.40 uM), 0.106 log 2 fold change; in test [3] (Dose 2.00 uM), 0.116 log 2 fold change; in test [3] (Dose 10.00 uM), 0.042 log 2 fold change. The Z.CTG in test [3] (Dose 0.08 uM) is listed as 0.348; in test [3] (Dose 0.40 uM), 0.252; in test [3] (Dose 2.00 uM), 0.276; in test [3] (Dose 10.00 uM), 0.100. Moreover, the SSMD.CTG in test [3] (setting [4]) was 0.257; in test [3] (setting [5]), 0.148; in test [3] (setting [6]) it was 0.227; in test [3] (setting [7]), 0.115.

As for `Cc1ccccc1C(=O)Nc1ccc(C(=O)N2CCCC(N(C)C)c3ccccc32)cc1` (stereo not drawn) [Mozavaptan], the SSMD.LYZ.NS is reported as 0.283 in test [1] (setting [4]), −0.203 in test [1] (setting [5]), 0.340 in test [1] (setting [6]) and −1.544 in test [1] (setting [7]). Further, the Z.LYZ.S is listed as 0.557 in test [2] (setting [4]), 1.068 in test [2] (setting [5]), 0.688 in test [2] (setting [6]) and −1.745 in test [2] (setting [7]). Further, the SSMD.LYZ.S in test [2] (setting [4]) is 0.266; in test [2] (setting [5]), 0.560; in test [2] (setting [6]), 0.775; in test [2] (setting [7]) it was −1.480. For the same molecule, the Z.CTG in test [3] (Dose 0.08 uM) was 0.765; in test [3] (Dose 0.40 uM) it was 0.562; in test [3] (Dose 2.00 uM), 0.259; in test [3] (Dose 10.00 uM), −0.803. In addition, the SSMD.CTG was 0.521 in test [3] (setting [4]), 0.427 in test [3] (setting [5]), 0.274 in test [3] (setting [6]) and −0.812 in test [3] (setting [7]).

For `FC(F)(F)c1ccc(/C=C/c2nc(COc3ccc(CCCCn4ccnn4)cc3)co2)cc1` [Mubritinib (TAK 165)], the Dose.FC.LYZ.NS in test [1] (Dose 0.08 uM) is −0.057 log 2 fold change; in test [1] (Dose 0.40 uM), −0.194 log 2 fold change; in test [1] (Dose 2.00 uM), −0.224 log 2 fold change; in test [1] (Dose 10.00 uM) it was −0.240 log 2 fold change. Also, the Z.LYZ.NS was −0.500 in test [1] (Dose 0.08 uM), −1.687 in test [1] (Dose 0.40 uM), −1.950 in test [1] (Dose 2.00 uM) and −2.092 in test [1] (Dose 10.00 uM). Moreover, the Dose.FC.LYZ.S is reported as −0.119 log 2 fold change in test [2] (Dose 0.08 uM), −0.154 log 2 fold change in test [2] (Dose 0.40 uM), −0.299 log 2 fold change in test [2] (Dose 2.00 uM) and −0.294 log 2 fold change in test [2] (Dose 10.00 uM). The Dose.FC.CTG is given as −0.524 log 2 fold change in test [3] (Dose 0.08 uM), −0.340 log 2 fold change in test [3] (Dose 0.40 uM), −0.530 log 2 fold change in test [3] (Dose 2.00 uM) and −0.519 log 2 fold change in test [3] (Dose 10.00 uM). For the same molecule, the Z.CTG in test [3] (Dose 0.08 uM) was −1.252; in test [3] (Dose 0.40 uM) it was −0.812; in test [3] (Dose 2.00 uM), −1.265; in test [3] (Dose 10.00 uM) it was −1.240.

Turning to `CCCCCCCCCCCCCCCCn1cc[n+](Cc2ccccc2)c1C.[I-]` [NH125], the Dose.FC.LYZ.NS in test [1] (Dose 0.08 uM) is −0.035 log 2 fold change; in test [1] (Dose 0.40 uM) it was −0.188 log 2 fold change; in test [1] (Dose 2.00 uM) it was −0.219 log 2 fold change; in test [1] (Dose 10.00 uM) it was −0.263 log 2 fold change. Moreover, the Z.LYZ.NS was −0.301 in test [1] (Dose 0.08 uM), −1.634 in test [1] (Dose 0.40 uM), −1.904 in test [1] (Dose 2.00 uM) and −2.293 in test [1] (Dose 10.00 uM). Further, the Dose.FC.LYZ.S in test [2] (Dose 0.08 uM) was −0.114 log 2 fold change; in test [2] (Dose 0.40 uM), −0.237 log 2 fold change; in test [2] (Dose 2.00 uM), −0.358 log 2 fold change; in test [2] (Dose 10.00 uM), −0.374 log 2 fold change. In addition, the Dose.FC.CTG is given as −0.347 log 2 fold change in test [3] (Dose 0.08 uM), −0.508 log 2 fold change in test [3] (Dose 0.40 uM), −1.106 log 2 fold change in test [3] (Dose 2.00 uM) and −1.787 log 2 fold change in test [3] (Dose 10.00 uM). Also, the Z.CTG in test [3] (Dose 0.08 uM) is −0.829; in test [3] (Dose 0.40 uM) it was −1.213; in test [3] (Dose 2.00 uM) it was −2.641; in test [3] (Dose 10.00 uM), −4.268.

For `CC(C)(Cc1ccc2ccccc2c1)NC[C@@H](O)COc1cccc(Cl)c1C#N` [NPS-2143], the Dose.FC.LYZ.NS in test [1] (Dose 0.08 uM) is given as 0.162 log 2 fold change; in test [1] (Dose 0.40 uM), −0.048 log 2 fold change; in test [1] (Dose 2.00 uM) it was −0.077 log 2 fold change; in test [1] (Dose 10.00 uM), −0.069 log 2 fold change. Besides, the Z.LYZ.NS was 1.413 in test [1] (Dose 0.08 uM), −0.416 in test [1] (Dose 0.40 uM), −0.674 in test [1] (Dose 2.00 uM) and −0.597 in test [1] (Dose 10.00 uM). The Dose.FC.LYZ.S in test [2] (Dose 0.08 uM) is 0.147 log 2 fold change; in test [2] (Dose 0.40 uM) it was −0.062 log 2 fold change; in test [2] (Dose 2.00 uM) it was −0.161 log 2 fold change; in test [2] (Dose 10.00 uM), −0.116 log 2 fold change. Also, the Dose.FC.CTG is given as 0.149 log 2 fold change in test [3] (Dose 0.08 uM), −0.195 log 2 fold change in test [3] (Dose 0.40 uM), −0.246 log 2 fold change in test [3] (Dose 2.00 uM) and −0.118 log 2 fold change in test [3] (Dose 10.00 uM). Further, the Z.CTG is reported as 0.356 in test [3] (Dose 0.08 uM), −0.466 in test [3] (Dose 0.40 uM), −0.587 in test [3] (Dose 2.00 uM) and −0.282 in test [3] (Dose 10.00 uM).

Turning to `Cc1ccc(S(=O)(=O)c2ccc([N+](=O)[O-])o2)cc1` [NSC697923], the Dose.FC.LYZ.NS is given as 0.091 log 2 fold change in test [1] (Dose 0.08 uM), 0.051 log 2 fold change in test [1] (Dose 0.40 uM), −0.104 log 2 fold change in test [1] (Dose 2.00 uM) and −0.154 log 2 fold change in test [1] (Dose 10.00 uM). The Z.LYZ.NS in test [1] (Dose 0.08 uM) is 0.789; in test [1] (Dose 0.40 uM), 0.441; in test [1] (Dose 2.00 uM), −0.906; in test [1] (Dose 10.00 uM), −1.338. Besides, the Dose.FC.LYZ.S in test [2] (Dose 0.08 uM) is on record as 0.036 log 2 fold change; in test [2] (Dose 0.40 uM), 0.108 log 2 fold change; in test [2] (Dose 2.00 uM), −0.154 log 2 fold change; in test [2] (Dose 10.00 uM), −0.270 log 2 fold change. Further, the Dose.FC.CTG in test [3] (Dose 0.08 uM) is −0.052 log 2 fold change; in test [3] (Dose 0.40 uM), −0.014 log 2 fold change; in test [3] (Dose 2.00 uM), −0.101 log 2 fold change; in test [3] (Dose 10.00 uM), −0.782 log 2 fold change. Further, the Z.CTG in test [3] (Dose 0.08 uM) is on record as −0.123; in test [3] (Dose 0.40 uM) it was −0.033; in test [3] (Dose 2.00 uM), −0.241; in test [3] (Dose 10.00 uM), −1.867.

Consider `CCN(CC)CCCC(C)Nc1nc(C)cc(Nc2ccc3nc(C)cc(N)c3c2)n1` (stereo not drawn) [NSC 23766], for which the Dose.FC.LYZ.NS in test [1] (Dose 0.08 uM) is 0.081 log 2 fold change; in test [1] (Dose 0.40 uM), 0.044 log 2 fold change; in test [1] (Dose 2.00 uM), 0.058 log 2 fold change; in test [1] (Dose 10.00 uM) it was 0.009 log 2 fold change. Besides, the Z.LYZ.NS is reported as 0.701 in test [1] (Dose 0.08 uM), 0.380 in test [1] (Dose 0.40 uM), 0.506 in test [1] (Dose 2.00 uM) and 0.080 in test [1] (Dose 10.00 uM). Besides, the Dose.FC.LYZ.S is 0.080 log 2 fold change in test [2] (Dose 0.08 uM), 0.090 log 2 fold change in test [2] (Dose 0.40 uM), 0.031 log 2 fold change in test [2] (Dose 2.00 uM) and 0.030 log 2 fold change in test [2] (Dose 10.00 uM). The Dose.FC.CTG in test [3] (Dose 0.08 uM) turned out to be 0.043 log 2 fold change; in test [3] (Dose 0.40 uM) it was 0.170 log 2 fold change; in test [3] (Dose 2.00 uM) it was 0.117 log 2 fold change; in test [3] (Dose 10.00 uM), 0.324 log 2 fold change. Besides, the Z.CTG in test [3] (Dose 0.08 uM) amounted to 0.103; in test [3] (Dose 0.40 uM) it was 0.406; in test [3] (Dose 2.00 uM), 0.279; in test [3] (Dose 10.00 uM), 0.774.
